{"source": "patent US20220356163A1", "about": "“SMALL MOLECULE INHIBITORS OF Id PROTEINS” (MEMORIAL SLOAN KETTERING CANCER CENTER, priority 2019, published 2022)", "test_system": "HCT116 cells", "test": "HCT116 MTT viability, cell cycle and Cyclin D1", "assay_type": "cell-based", "conditions": "HCT116, 40 μM", "experimental": "Immunoblotting. For immunoblotting, cells were collected by trypsinization, washed with PBS and lysed in homogenization buffer (0.3 M sucrose, 10 mM Tris (pH 8.0), 400 mM sodium chloride, 3 mM magnesium chloride, 0.5% NP40/IGEPAL, 100 μg/mL Aprotinin+Protease inhibitor cocktail (Roche #11 836 153 001). Proteins were separated by SDS-PAGE, transferred to a membrane (LI-COR), probed with primary antibodies overnight at 4° C., and probed with secondary antibodies (LI-COR) for 1-2 hours at room temperature. Proteins were visualized using the LI-COR Odyssey Infrared Imaging detection system. The following primary antibodies were used Id1, Id2, Id3, Id4 (195-14, 9-2-8, 17-3, 82-12, respectively, all from Biocheck), Cyclin D1 (2978, Cell Signaling), Actin (A2066, Sigma), Tubulin (T4026, Sigma). Western blot quantification was carried out using channel 700 and channel 800 intensity data from Odyssey application software version 3.0.30 (LI-COR), subtracting blank values and normalizing to Tubulin.\nCell viability assays. Cell lines were seeded in a 96 well plate (5000 cells per well). After overnight incubation, cells were treated with AGX51 and incubated for 24 hours then MTT reagent (5 mg/mL) was added per well and the cells were incubated for four hours. Following incubation, media was aspirated and 200 μL DMSO was added per well. Absorbance was then measured at 570 nm using a plate reader (Synergy 2, BioTek). Cell growth profiles were determined by seeding 38,000 cells in a 24-well plate, in triplicate for each time point, and counting the cells on days 1, 3 and 5 after seeding, using trypan blue exclusion of dead cells.\nCell cycle analysis. […] For cell cycle analysis cells were centrifuged 1000 rpm for 5 minutes, washed with 1×PBS and then resuspended in 0.5 mL PI/RNase staining buffer (550825, BD Biosciences), incubated for 15 minutes at room temperature and analyzed by flow cytometry (LSR II).", "data": [{"smiles": "CCC(=O)N(CCC(c1ccc2c(c1)OCO2)c1ccccc1OC)Cc1ccccc1", "note": "(racemic) [AGX51, N-(3-(benzo[d][1,3]dioxol-5-yl)-3-(2-methoxyphenyl)propyl)-N-benzylpropionamide]", "values": [{"measurement": "Cyclin D1 levels", "setting": "0-48 hours", "result": "reduction in Cyclin D1 levels"}, {"measurement": "cell cycle", "setting": "4-24 hours", "result": "G0/G1 growth arrest"}, {"measurement": "cell viability", "setting": "24 hours", "result": "reduced cell viability"}]}]}
